Activity and zone of inhibition data for two compounds are collected here from ChEMBL document CHEMBL1148928, “Hyrtiosenolides A and B, two new sesquiterpene gamma-methoxybutenolides and a new sterol from a Red Sea sponge Hyrtios species” (2004).

Calls of active or inactive are those of the source. The rule behind the calls is not given here.

Assay [1] relates to Escherichia coli. Briefly: Antibacterial activity against Escherichia coli at 100 ug/disk. Type of assay: functional.
The subject of assay [2] is Escherichia coli. The assay is described as follows: Antibacterial activity against Escherichia coli at 50 ug/disk. Type of assay: functional.

In the case of `C=C1[C@@]2(C)CCC3=CC(=O)O[C@]3(OC)[C@H](C2)C[C@@]1(C)O`, the outcome in the assay on Escherichia coli [1] and with Escherichia coli [2] was inactive.
`C=C1C[C@H]2C[C@](C)(CCC3=CC(=O)O[C@@]32OC)[C@]1(C)O` [HYRTIOSENOLIDE A]: the zone of inhibition at 100 µg/disc in the assay with Escherichia coli [1] (read-out: IZ) is 7 mm. Further, in the assay on Escherichia coli [2] (read-out: IZ), the zone of inhibition at 50 µg/disc was found to be 7 mm.
